Assay results reported in the supplement of paper PMC11919725.

Assays:
Jurkat [1] = experiment: cytotoxicity relative to DMSO, 18 h (ratio); higher = less cell death (drugs called cytotoxic fall below 1)
Outline: (§1)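 Cytotoxicity was measured by IncuCyte fluorescence imaging after confluency correction and normalisation to mean control values. Cells (Jurkat, or primary CD4+/CD8+ T cells that were naive or pre-activated 48 h with CD3/CD28 Dynabeads) received compound at 1 nM–10 µM in log10 steps for 18 h at 37 °C, 5% CO2. Imaging used ×10 magnification, five images per well, taken hourly over 3 h in 96-well plates with 250 nM final IncuCyte Cytotox Dye in 100 µl of suspension.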

[2] = test system: Primary T cells CD4+ naive; experiment: as above
Outline: as §1

Jurkat [3] = experiment: confluency relative to DMSO, 18 h (ratio); higher = more viable
Outline: (§2)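 Cells (Jurkat, or primary CD4+/CD8+ T cells either naive or stimulated 48 h with CD3/CD28 Dynabeads) were incubated with compound for 18 h at 37 °C, 5% CO2, across 1 nM–10 µM in log10 steps. Each 100 µl suspension was then placed in a 96-well plate with IncuCyte Cytotox Dye and alamarBlue and imaged by phase contrast at ×10, five images per well, hourly over 3 h. Confluency values come from the Basic Analyzer and are relative to the mean of the control wells.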

[4] = test system: Primary T cells CD4+ naive; experiment: as above
Outline: as §2

Jurkat [5] = experiment: metabolic activity relative to DMSO, 18 h (ratio); higher = more viable
Outline: (§3)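 Compound was added at 1 nM–10 µM (log10 steps) for 18 h at 37 °C, 5% CO2 to Jurkat cells or to primary CD4+/CD8+ T cells that were naive or had been activated 48 h with CD3/CD28 Dynabeads. After alamarBlue was added to 10% v/v final, fluorescence (excitation 544 nm, emission 584 nm) was measured 3.5 h later. Values for metabolic activity are normalised to the mean of vehicle controls.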

[6] = test system: Primary T cells CD4+ naive; experiment: as above
Outline: as §3

SMILES	cytotoxicity (Jurkat [1]; 1 nM)	cytotoxicity (Jurkat [1]; 10 nM)	cytotoxicity (Jurkat [1]; 100 nM)	cytotoxicity (Jurkat [1]; 1000 nM)	cytotoxicity (Jurkat [1]; 10000 nM)	cytotoxicity ([2]; 1 nM)	cytotoxicity ([2]; 10 nM)	cytotoxicity ([2]; 100 nM)	cytotoxicity ([2]; 1000 nM)	cytotoxicity ([2]; 10000 nM)	confluency (Jurkat [3]; 1 nM)	confluency (Jurkat [3]; 10 nM)	confluency (Jurkat [3]; 100 nM)	confluency (Jurkat [3]; 1000 nM)	confluency (Jurkat [3]; 10000 nM)	confluency ([4]; 1 nM)	confluency ([4]; 10 nM)	confluency ([4]; 100 nM)	confluency ([4]; 1000 nM)	confluency ([4]; 10000 nM)	metabolic activity (Jurkat [5]; 1 nM)	metabolic activity (Jurkat [5]; 10 nM)	metabolic activity (Jurkat [5]; 100 nM)	metabolic activity (Jurkat [5]; 1000 nM)	metabolic activity (Jurkat [5]; 10000 nM)	metabolic activity ([6]; 1 nM)	metabolic activity ([6]; 10 nM)	metabolic activity ([6]; 100 nM)	metabolic activity ([6]; 1000 nM)	metabolic activity ([6]; 10000 nM)
CCCCc1nc2cc(C=CC(=O)NO)ccc2n1CCN(CC)CC [Pracinostat]	0.918	0.836	0.799	1.02	0.852	0.794	1.19	1.38	1.03	0.897	0.945	0.95	0.862	1.04	0.908	0.744	1.13	1.29	1.05	0.873	1.09	0.964	1.03	0.737	0.621	0.982	0.951	0.917	0.946	0.877
CC(C)(CNC(=O)c1cccc(-c2noc(C(F)(F)F)n2)c1)c1coc(-c2ccccc2)n1 [TMP195]	0.995	0.915	1.12	1.06	1.06						1.02	0.934	1.08	1.04	1.02						1.02	0.877	0.921	0.94	1.02					
O=C(NCC1(c2nc(-c3ccccc3)cs2)CCOCC1)c1cccc(-c2noc(C(F)(F)F)n2)c1 [TMP269]	0.968	1.06	0.951	0.93	0.891						0.997	1.08	0.985	0.978	0.947						0.923	0.987	1.04	1.06	1.03					
CC(=O)Nc1ccc(C(=O)Nc2ccccc2N)cc1 [Tacedinaline]	0.902	0.979	0.958	0.905	0.942						0.975	1.05	1.01	0.986	0.994						0.978	0.926	0.943	0.899	0.757					
Cn1ncnc1C1c2n[nH]c(=O)c3cc(F)cc(c23)NC1c1ccc(F)cc1 (stereo not given) [Talazoparib]	0.986	1.01	0.96	0.97	0.848						0.992	1	0.967	0.939	0.897						1.02	0.958	1.05	1.07	1.03					
C=CCNC1=C2CC(C)CC(OC)C(O)C(C)C=C(C)C(OC(N)=O)C(OC)C=CC=C(C)C(=O)NC(=CC1=O)C2=O (stereo not given) [Tanespimycin]	0.913	0.813	0.913	0.585	0.628						0.985	0.872	0.982	0.7	0.734						0.935	0.939	0.999	0.835	0.795					
COc1cccc2c1c(O)c(C(=O)N(C)c1ccc(C(F)(F)F)cc1)c(=O)n2C [Tasquinimod]	1	0.998	0.97	1.2	1.15						0.994	0.999	0.975	1.02	1						1.06	0.914	0.979	1.17	1.12					
CCN(c1cc(-c2ccc(CN3CCOCC3)cc2)cc(C(=O)NCc2c(C)cc(C)[nH]c2=O)c1C)C1CCOCC1 [Tazemetostat]	0.997	0.928	0.843	0.912	1.05						0.999	0.961	0.898	0.926	0.97						0.926	0.932	0.939	1.12	1.24					
COC1CC2CCC(C)C(O)(O2)C(=O)C(=O)N2CCCCC2C(=O)OC(C(C)CC2CCC(OC(=O)C(C)(CO)CO)C(OC)C2)CC(=O)C(C)C=C(C)C(O)C(OC)C(=O)C(C)CC(C)C=CC=CC=C1C (stereo not given) [Temsirolimus]	0.937	0.781	0.787	0.958	0.925						0.971	0.876	0.899	1.02	1.05						0.977	0.927	0.903	0.93	0.762					
O=C1CCC(N2C(=O)c3ccccc3C2=O)C(=O)N1 (stereo not given) [Thalidomide]	0.981	1	1.1	0.991	0.855						0.954	0.93	1	0.99	0.975						1.17	1.26	1.27	1.13	0.925					
CC1CCN(C(=O)CC#N)CC1N(C)c1ncnc2[nH]ccc12 (stereo not given) [Tofacitinib]	1.01	1.06	0.922	1.02	0.851						0.957	0.941	0.983	0.961	0.844						1.23	1.27	1.02	0.928	0.908					
CC(=O)Nc1cccc(-n2c(=O)n(C3CC3)c(=O)c3c(Nc4ccc(I)cc4F)n(C)c(=O)c(C)c32)c1 [Trametinib]	1.14	1.12	1.26	1.12	1.02						1.01	1.03	1.05	1.03	1						1.12	1.08	1.15	1.1	1.02					
NC1CC1c1ccccc1 (stereo not given) [Tranylcypromine]	0.98	0.941	1.15	1.08	0.956						0.972	0.963	0.998	1.02	1						1.02	0.916	1.14	1.08	0.962					
CC(C=CC(=O)NO)=CC(C)C(=O)c1ccc(N(C)C)cc1 (stereo not given) [Trichostatin-A]	1.27	1.25	1.22	1.06	0.98						0.999	1.03	1.03	0.99	0.96						1.21	1.17	1.17	0.97	0.904					
CN1CCc2c(c3ccccc3n2Cc2ccc(C(=O)NO)cc2)C1 [Tubastatin A]	1.04	1.02	1.05	0.953	0.893						0.97	0.971	0.987	0.932	0.841						1.23	1.23	1.24	1.15	1.19					
CC(C)Nc1cc(-c2c[nH]c(C(=O)NC(CO)c3cccc(Cl)c3)c2)c(Cl)cn1 (stereo not given) [Ulixertinib]	0.973	1.01	0.93	0.998	0.777						1.02	1.06	0.999	1.11	0.826						1.05	1.02	0.828	0.866	0.878					
Cc1ncsc1-c1ccc(CNC(=O)C2CC(O)CN2C(=O)C(NC(=O)C2(C#N)CC2)C(C)(C)C)cc1 (stereo not given) [VH298]	1	1.05	1.12	1.13	0.942						1.01	0.995	0.998	0.962	0.901						1.04	1.08	1.13	1.14	0.896					
Cc1ncsc1-c1ccc(CNC(=O)C2CC(O)CN2C(=O)C(N)C(C)(C)C)cc1 (stereo not given) [VHL ligand 1]	1.01	0.955	0.949	0.966	0.948						1.01	1.01	1.03	1.02	1.02						1.06	1.01	1.06	0.989	1.05					
CC1(c2nc3c(C(N)=O)cccc3[nH]2)CCCN1 (stereo not given) [Veliparib]	1.03	0.975	0.969	1.08	0.9						1.07	1.04	1.02	1.03	0.966						0.894	0.816	0.851	0.948	0.8					
CCC1(O)CC2CN(CCc3c([nH]c4ccccc34)C(C(=O)OC)(c3cc4c(cc3OC)N(C=O)C3C(O)(C(=O)OC)C(OC(C)=O)C5(CC)C=CCN6CCC43C65)C2)C1 (stereo not given) [Vincristine]	0.824	0.698	0.662	0.611	0.585						0.98	0.875	0.82	0.781	0.762						0.536	0.402	0.366	0.394	0.412					
CCn1c(=O)c(-c2ccn[nH]2)cc2c(C)nc(N)nc21 [Voxtalisib]	0.985	0.977	0.966	0.943	1.02						1	1.01	1.02	1.02	1.04						1.05	1.02	0.993	0.924	1					
CN1CC=CCCOc2cccc(c2)-c2ccnc(n2)Nc2cccc(c2)C1 [Zotiraciclib]	0.95	0.924	0.468	0.473	0.436						0.992	0.992	0.923	0.908	0.882						1.03	0.912	0.094	0.085	0.05					
